Molecular target: T1, BetX with CbcWV (Pseudomonas aeruginosa, UniProt Q9HZ04)
T1 sequence (Q9HZ04 26-285): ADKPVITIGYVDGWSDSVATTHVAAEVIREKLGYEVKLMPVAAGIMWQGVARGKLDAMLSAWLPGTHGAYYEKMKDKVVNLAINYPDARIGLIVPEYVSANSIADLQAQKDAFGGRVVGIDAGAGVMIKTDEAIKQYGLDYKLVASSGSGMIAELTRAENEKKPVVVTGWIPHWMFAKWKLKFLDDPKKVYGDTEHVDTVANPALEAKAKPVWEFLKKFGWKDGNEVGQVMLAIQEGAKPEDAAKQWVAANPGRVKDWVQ
T1 sequence (Q9HTI7 1-279 partner): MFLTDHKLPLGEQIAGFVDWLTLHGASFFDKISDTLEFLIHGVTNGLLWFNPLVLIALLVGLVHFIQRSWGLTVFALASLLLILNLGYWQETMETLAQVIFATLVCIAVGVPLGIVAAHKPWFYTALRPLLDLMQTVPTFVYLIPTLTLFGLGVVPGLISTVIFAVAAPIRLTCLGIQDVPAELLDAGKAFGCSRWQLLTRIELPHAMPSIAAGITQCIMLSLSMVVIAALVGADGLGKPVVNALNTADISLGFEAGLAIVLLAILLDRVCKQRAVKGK
T1 sequence (Q9HTI8 1-392 partner): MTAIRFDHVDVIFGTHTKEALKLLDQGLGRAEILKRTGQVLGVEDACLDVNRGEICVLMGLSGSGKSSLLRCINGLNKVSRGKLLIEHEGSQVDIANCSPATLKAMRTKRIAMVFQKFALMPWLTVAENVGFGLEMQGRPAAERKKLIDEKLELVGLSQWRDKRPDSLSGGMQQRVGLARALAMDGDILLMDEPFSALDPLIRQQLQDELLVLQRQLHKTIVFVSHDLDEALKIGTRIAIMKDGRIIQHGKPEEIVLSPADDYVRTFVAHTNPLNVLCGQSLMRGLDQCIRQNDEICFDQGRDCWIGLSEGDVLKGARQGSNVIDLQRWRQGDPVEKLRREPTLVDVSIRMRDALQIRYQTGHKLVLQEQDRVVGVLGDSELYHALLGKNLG
Experiment: Uptake kinetics, MKH13
Conditions: MKH13, pNcbcWV + pTPA3236, SBP BetX, mean (SE), n = 4

C[N+](C)(C)CC(=O)O [Betaine, glycine betaine]
maximal rate of uptake (Vmax): 4.8 (0.18) nmol min^−1 (mg protein)^−1
maximal rate of uptake (Vmax) (listed as betaine): 4.8 nmol min^−1 (mg protein)^−1

Reference: publication PMC5503199 (Molecular microbiology, 2009)
